In ChEMBL document CHEMBL5729210, “Benzodiazepine derivatives as RSV inhibitors” (2022) one finds EC50 data, which are given here for 82 compounds.

This experiment is described as follows: RSV-A Assay: The description is Japanese.

Structures are written as SMILES. Several values for one entry are separate records, joined by “and”; a condition that tells them apart may be missing. Equal entries are not always repeated.

By EC50 is commonly meant the concentration that produces a half-maximal response. A higher EC50 goes with a need for much substance. Turning to `O=C1Nc2ccccc2C(c2ccccc2)=NC1Nc1ncc(-c2ccccc2)cn1` (configuration not stated), the EC50 is more than 800 nM.

The compound `O=C1Nc2ccccc2C(c2ccccc2)=NC1Nc1nnc(-c2cccnc2N2CCOCC2)o1` (configuration not stated) registered an EC50 of less than 400 nM.

Compound `O=C1Nc2ccccc2C(c2ccccc2)=NC1Nc1nc2ccc(Cl)cc2o1` (configuration not stated) gave an EC50 of more than 800 nM.

Compound `O=C1Nc2ccccc2C(c2ccccc2)=NC1Nc1nnc(-c2cccc(C(F)(F)F)c2)o1` (configuration not stated) returned an EC50 of more than 800 nM.

Regarding `O=C1Nc2ccccc2C(c2ccccc2)=NC1Nc1nnc(-c2ncc(C(F)(F)F)cc2N2CCOCC2)o1` (configuration not stated), the concentration for a half-maximal effect (EC50) was less than 400 nM.

Consider `COc1ccccc1-c1nc(-c2nnc(N[C@H]3N=C(c4ccccc4)c4ccccc4NC3=O)o2)c(N2CCOCC2)s1`, for which the EC50 is less than 400 nM.

As for `O=C1Nc2ccccc2C(c2ccccc2)=NC1Nc1nnc(-c2ccccc2)o1` (configuration not stated), the EC50 was more than 800 nM.

Regarding `O=C1Nc2ccccc2C(c2ccccc2)=N[C@@H]1Nc1nnc(-c2nc3ccccc3cc2N2CCOCC2)o1`, the EC50 was less than 400 nM.

In turn, `COCCOc1ccccc1-c1nnc(NC2N=C(c3ccccc3)c3ccccc3NC2=O)o1` (configuration not stated) showed an EC50 of more than 800 nM.

`O=C1Nc2ccccc2C(c2ccccc2)=NC1Nc1nnc(-c2ccc(=O)[nH]c2)o1` (configuration not stated) returned an EC50 of more than 800 nM.

For `O=C1Nc2ccccc2C(c2ccccc2)=NC1Nc1nnc(-c2cc(C(F)(F)F)cnc2N2CCOCC2)o1` (configuration not stated), the EC50 was more than 800 nM.

The compound `O=C1Nc2ccccc2C(c2ccccc2)=NC1Nc1nnc(C2CC2)[nH]1` (configuration not stated) came in with an EC50 of more than 800 nM.

As for `O=C1Nc2ccccc2C(c2ccccc2)=N[C@@H]1Nc1nnc(-c2ncc(C(F)(F)F)cc2N[C@H]2CCOC2)o1`, the EC50 is more than 800 nM.

On to `N#Cc1cnc(-c2nnc(N[C@H]3N=C(c4ccccc4)c4cccc(F)c4NC3=O)o2)c(N2CCOCC2)c1`, for which the EC50 is less than 400 nM.

`O=C1Nc2ccccc2C(c2ccccc2)=NC1Nc1nnc(C2CCNCC2)o1` (configuration not stated) showed an EC50 of more than 800 nM.

`Cc1ccc(C(=O)O)c(N2CCOCC2)n1` registered an EC50 of less than 400 nM.

For the compound `N#Cc1cccc(C2=NC(Nc3nnc(-c4ccc(F)cc4)o3)C(=O)Nc3ccccc32)c1` (configuration not stated), the EC50 was more than 800 nM.

For the compound `O=C1Nc2ccccc2C(c2ccccc2)=NC1Nc1nnc(-c2ccccc2C2=CCOCC2)o1` (configuration not stated), the EC50 is more than 800 nM.

Take `O=C1Nc2ccccc2C(c2ccccc2)=NC1Nc1nnc(-c2nccnc2N2CCOCC2)o1` (configuration not stated): the EC50 is less than 400 nM.

The compound `COC[C@H]1CCCN1c1sc(C(F)(F)F)nc1-c1nnc(N[C@H]2N=C(c3ccccc3)c3ccccc3NC2=O)o1` registered an EC50 of more than 800 nM.

The compound `N#CCCc1nnc(NC2N=C(c3ccccc3)c3ccccc3NC2=O)o1` (configuration not stated) returned an EC50 of more than 800 nM.

As for `O=C1Nc2c(F)cccc2C(c2ccccc2)=N[C@H]1Nc1nnc(-c2cccnc2N2CCOCC2)o1`, the EC50 is > 800 nM and < 400 nM.

For `CN1CCN(c2ccc(-c3nnc(NC4N=C(c5ccccc5)c5ccccc5NC4=O)o3)cc2)CC1` (configuration not stated), the EC50 is more than 800 nM.

For `COC(=O)c1sc(Br)cc1N1CCOCC1`, the EC50 was less than 400 nM.

As to `O=C1Nc2ccccc2C(c2ccccc2)=N[C@@H]1Nc1nnc(-c2nc(-c3cccnc3)sc2N2CCOCC2)o1`, the EC50 is less than 400 nM.

Compound `O=C1Nc2ccccc2C(c2ccccc2)=NC1Nc1nnc(-c2ccccc2F)o1` (configuration not stated) yielded an EC50 of more than 800 nM.

As to `CCOC(=O)c1ncccc1N1CCOCC1`, the EC50 is less than 400 nM.

Take `O=C1Nc2ccccc2C(c2ccccc2)=N[C@@H]1Nc1nnc(-c2ncc(C(F)(F)F)cc2N2CCC(F)CC2)o1`: the 50% effective concentration (EC50) was more than 800 nM.

For `CC(C)Oc1cccc(-c2nnc(NC3N=C(c4ccccc4)c4ccccc4NC3=O)o2)c1` (configuration not stated), the EC50 entry was “in the range around 600 nM”.

With `O=C1Nc2ccccc2C(c2ccccc2)=NC1Nc1nc(-c2ccccc2)ns1` (configuration not stated), the EC50 was more than 800 nM.

For the compound `O=C1Nc2ccccc2C(c2ccccc2)=N[C@H]1Nc1nnc(-c2ccc(N3CCOCC3)cc2)o1`, the EC50 was more than 800 nM.

For `O=C1Nc2ccccc2C(c2ccccc2)=NC1Nc1nnc(-c2ccc3ccccc3c2)o1` (configuration not stated), the half-maximal effective concentration (EC50) entry was “in the range around 600 nM”.

For the compound `CNc1cc(C(F)(F)F)cnc1-c1nnc(N[C@H]2N=C(c3ccccc3)c3ccccc3NC2=O)o1`, the EC50 is more than 800 nM.

With `CS(=O)(=O)c1ccc(-c2nnc(NC3N=C(c4ccccc4)c4ccccc4NC3=O)o2)c(N2CCOCC2)c1` (configuration not stated), the EC50 is more than 800 nM.

For the compound `O=C1Nc2ccccc2C(c2ccccc2)=N[C@@H]1Nc1nnc(-c2ncc(C(F)(F)F)cc2NC2COC2)o1`, the EC50 was less than 400 nM.

For the compound `Cc1noc(C)c1-c1cc(C#N)ccc1-c1nnc(N[C@H]2N=C(c3ccccc3)c3ccccc3NC2=O)o1`, the EC50 is more than 800 nM.

The compound `Cc1nc(N2CCOCC2)c(-c2nnc(N[C@H]3N=C(c4ccccc4)c4ccccc4NC3=O)o2)cc1C#N` had an EC50 of less than 400 nM.

`N#CC1CCN(c2ncccc2-c2nnc(NC3N=C(c4ccccc4)c4ccccc4NC3=O)o2)CC1` (configuration not stated) came in with an EC50 of more than 800 nM.

For `COCCOc1cc(C#N)ccc1-c1nnc(N[C@H]2N=C(c3ccccc3)c3ccccc3NC2=O)o1`, the EC50 is less than 400 nM.

As for `O=C1Nc2ccccc2C(c2ccccc2)=N[C@@H]1Nc1nnc(-c2nc(C(F)(F)F)sc2N2CCO[C@H]3C[C@H]32)o1`, the EC50 was less than 400 nM.

`Cc1nc(-c2nnc(N[C@H]3N=C(c4ccccc4)c4ccccc4NC3=O)o2)c(N2CCOCC2)o1` registered an EC50 of less than 400 nM.

Regarding `O=C1Nc2ccccc2C(c2ccccc2)=N[C@@H]1Nc1nnc(-c2ncc(C(F)(F)F)cc2NC[C@@H]2CCCO2)o1`, the EC50 entry is “in the range around 600 nM”.

Take `C[C@@H]1COCCN1c1cc(C#N)ccc1-c1nnc(N[C@H]2N=C(c3ccccc3)c3ccccc3NC2=O)o1`: the EC50 is less than 400 nM.

`O=C1Nc2ccccc2C(c2ccccc2)=NC1Nc1nnc(-c2ncccn2)o1` (configuration not stated) had an EC50 of more than 800 nM.

In turn, `CCCc1nnc(NC2N=C(c3ccccc3)c3ccccc3NC2=O)o1` (configuration not stated) came in with an EC50 of more than 800 nM.

As to `COc1ccc(-c2nnc(NC3N=C(c4ccccc4)c4ccccc4NC3=O)o2)cc1` (configuration not stated), the EC50 is more than 800 nM.

The compound `O=C1Nc2ccccc2C(c2ccccc2)=NC1Nc1nnc(-c2ccc(N3CCOCC3)cn2)o1` (configuration not stated) showed an EC50 of more than 800 nM.

The compound `O=C1Nc2ccccc2C(c2ccccc2)=NC1Nc1nnc(-c2ccc(F)cc2)[nH]1` (configuration not stated) yielded a half-maximal effective concentration (EC50) of more than 800 nM.

As to `CC1(Nc2cc(C(F)(F)F)cnc2-c2nnc(N[C@H]3N=C(c4ccccc4)c4ccccc4NC3=O)o2)CCOC1` (some centres not stated), the EC50 is more than 800 nM.

`O=C1Nc2ccccc2C(c2ccccc2)=NC1Nc1ncc(-c2ccc(F)cc2)o1` (configuration not stated) yielded an EC50 of more than 800 nM.

With `N#Cc1c[nH]c2cc(-c3nnc(N[C@H]4N=C(c5ccccc5)c5ccccc5NC4=O)o3)ccc12`, the EC50 is more than 800 nM.

In turn, `CCOC(=O)c1ncc(C(F)(F)F)cc1-c1ccncc1` came in with an EC50 of more than 800 nM.

`CCOC(=O)c1cnc(C2CC2)nc1N1CCOCC1` showed a 50% effective concentration (EC50) of less than 400 nM.

In turn, `O=C1Nc2ccccc2C(c2ccccc2)=NC1Nc1nnc(CCC(F)(F)F)o1` (configuration not stated) returned an EC50 of more than 800 nM.

In turn, `N#CCCNc1cc(C(F)(F)F)cnc1-c1nnc(N[C@H]2N=C(c3ccccc3)c3ccccc3NC2=O)o1` gave an EC50 of less than 400 nM.

For the compound `O=C1Nc2ccccc2C(c2ccccc2)=N[C@@H]1Nc1nnc(-c2cn(-c3ccc(C(F)(F)F)nc3)nc2N2CCOCC2)o1`, the EC50 is < 400 nM and in the range around 600 nM.

`N#Cc1ccc2nccc(-c3nnc(N[C@H]4N=C(c5ccccc5)c5ccccc5NC4=O)o3)c2c1` had an EC50 of more than 800 nM.

`O=C1Nc2ccccc2C(c2ccccc2)=NC1Nc1nnc(-c2ccc(N3CCOCC3)cc2Cl)o1` (configuration not stated) registered an EC50 of more than 800 nM.

`O=C1Nc2ccccc2C(c2ccccc2)=NC1Nc1nnc(-c2ccc(F)cc2F)o1` (configuration not stated) returned an EC50 of more than 800 nM.

As to `O=C(O)c1ccc(-n2cncn2)cc1N1CCOCC1`, the EC50 result is “in the range around 600 nM”.

`O=C1Nc2ccccc2C(c2ccccc2)=N[C@@H]1Nc1nnc(-c2ccsc2N2CCOCC2)o1` registered an EC50 of less than 400 nM.

Compound `Cc1nc(-c2nnc(N[C@H]3N=C(c4ccccc4)c4ccccc4NC3=O)o2)c(Cl)s1` displayed a 50% effective concentration (EC50) of more than 800 nM.

Consider `O=C1Nc2ccccc2C(c2ccccc2)=NC1Nc1nnc(-c2cn(-c3ccc(F)cn3)nc2N2CCOCC2)o1` (configuration not stated), for which the EC50 was less than 400 nM.

Consider `O=C1Nc2ccccc2C(c2ccccc2)=N[C@@H]1Nc1nnc(-c2cnc(C(F)(F)F)nc2N2CC3CCC(C2)O3)o1`, for which the half-maximal effective concentration (EC50) is more than 800 nM.

In turn, `Cn1c(N2CCOCC2)c(-c2nnc(N[C@H]3N=C(c4ccccc4)c4ccccc4NC3=O)o2)ccc1=O` yielded an EC50 of less than 400 nM.

In the case of `O=C1Nc2ccccc2C(c2ccccc2)=N[C@@H]1Nc1nnc(-c2nc(-c3ccccc3)sc2N2CCOCC2)o1`, the EC50 was less than 400 nM.

In turn, `N#Cc1cc(-c2nnc(NC3N=C(c4ccccc4)c4ccccc4NC3=O)o2)ccn1` (configuration not stated) showed an EC50 of more than 800 nM.

Compound `O=C1Nc2ccccc2C(c2ccccc2)=NC1Nc1nnc(-c2ccccc2)s1` (configuration not stated) showed an EC50 of more than 800 nM.

`C#Cc1cnc(-c2nnc(N[C@H]3N=C(c4ccccc4)c4ccccc4NC3=O)o2)c(N2CCOCC2)c1` yielded an EC50 of less than 400 nM.

`N#Cc1ccn2ncc(-c3nnc(N[C@H]4N=C(c5ccccc5)c5ccccc5NC4=O)o3)c2c1` registered an EC50 of more than 800 nM.

As for `N#Cc1ccc(-c2nnc(N[C@H]3N=C(c4ccccc4)c4ccccc4NC3=O)o2)c(N2CCOCC2)c1`, the EC50 is less than 400 nM.

`Cc1ccc(-c2nnc(N[C@H]3N=C(c4ccccc4)c4ccccc4NC3=O)o2)c(N2CCOC[C@H]2C)n1` registered an EC50 of less than 400 nM.

For `COc1cc(-c2nnc(NC3N=C(c4ccccc4)c4ccccc4NC3=O)o2)ccc1-n1cnc(C)c1` (configuration not stated), the EC50 is more than 800 nM.

In turn, `CN1CCN(c2ncccc2-c2nnc(NC3N=C(c4ccccc4)c4ccccc4NC3=O)o2)CC1` (configuration not stated) showed an EC50 of more than 800 nM.

`COc1ccn2ncc(-c3nnc(N[C@H]4N=C(c5ccccc5)c5ccccc5NC4=O)o3)c2c1` came in with a 50% effective concentration (EC50) of more than 800 nM.

In the case of `O=C1Nc2ccccc2C(c2ccccc2)=N[C@@H]1Nc1nnc(-c2ncsc2N2CCOCC2)o1`, the EC50 is less than 400 nM.

`O=C1Nc2ccccc2C(c2ccccc2)=NC1Nc1nnc(-c2ccccc2N2CCS(=O)(=O)CC2)o1` (configuration not stated) showed an EC50 of more than 800 nM.

`O=C1Nc2ccccc2C(c2ccccc2)=NC1Nc1nnc(-c2cncnc2)o1` (configuration not stated) registered an EC50 of more than 800 nM.

Turning to `CC(C)(Cc1ccccc1)c1nnc(NC2N=C(c3ccccc3)c3ccccc3NC2=O)o1` (configuration not stated), the EC50 is more than 800 nM.

The compound `COCCOC(=O)c1nc2ccccc2n1CCOC` displayed an EC50 of more than 800 nM.

Turning to `CCOC(=O)c1nc(-c2ccc(C(F)(F)F)nc2)sc1N1CCOCC1`, the EC50 is less than 400 nM.

The compound `O=C1Nc2ccccc2C(c2ccccc2)=NC1Nc1nnc(C2CCNC2)o1` (configuration not stated) gave an EC50 of more than 800 nM.
